Laboratory results reported in patent publication US20050208149A1, “Use of arsenic-containing pharmaceutical composition in combination with radiation therapy for cancer treatment” (TTY Biopharm Limited Company, priority 2004, published 2005).
Values joined by “and” are separate entries in the source; they are usually repeats but may differ in a detail not shown here. Identical values can stand only once.

Legend:
[1] = test system: breast cancer patients with superficial fungating or skin-infiltrating tumors; test: Monitoring for adverse effects (CTC version 2.0) during combined topical As2O3 and radiation treatment; type: in vivo, human; conditions: for Acute radiation dermatitis, case number / Anorexia, case number / Chronic radiation dermatitis, case number / Fatigue, case number / Granulocytosis, case number / Hyperpigmentation, case number / Leukopenia, case number / Nausea, case number / Thrombocytopenia, case number / Vomit, case number: of 7 patients, topical As2O3 + radiation
Source text: (§1) Between December 2001 and March 2003, seven patients of breast cancer with superficial fungating or skin-infiltrating tumors who had undergone standard treatments received topical As2O3 and radiotherapy at Mackay Memorial Hospital (Table 3). Eligibility criteria for the study included diagnosis of breast cancer confirmed by pathological examination. In addition, patients had to have relapsed after standard treatments such as surgery, radiation therapy or chemotherapy. Six patients had received post-operative radiation to the chest wall and axillary area. Written informed consent was required, and the study protocol was viewed and approved by the institutional review board of the Mackay Memorial Hospital.
(§2) As2O3 gel prepared by Example 2 was administered in daily topical doses that ranged from 0.01 to 0.5 mg/cm2/day, preferred from 0.05-0.15 mg/cm2/day. The gel was administered 1 h prior to the daily radiation treatment and was subsequently removed 5 min prior to the radiation exposure. Electron beam radiotherapy was delivered using a linear accelerator (9-12 MeV, dose rate 2.4 Gy/min; Clinac 1800; Varian Associates, Palo Alto, Calif.). Radiation was administered 5 days a week (total dose: 50 Gy in 25 fractions or 30 Gy in 10 fractions).
With regard to drug absorption via skin, possible systemic adverse effects were evaluated. Serial blood counts and serum chemistry profiles were performed. Serum chemistry profiles, including alanine aminotransferase, aspartate aminotransferase, blood urine nitrogen and creatinine, were measured using a Synchron LX20 spectrophotometer (Beckman Coulter, San Diego, Calif.). An electrocardiogram was recorded before and after irradiation for each patient. Adverse effect and toxicity were evaluated according to the Common Toxicity Criteria (CTC) version 2.0 published by the DCTD, NCI, NIH and DHHS in 1999.

[2] = test system: cutaneous metastatic breast cancer; conditions: topical As2O3 alone; Cheng 2003; cited from earlier work
[3] = test system: breast cancer patients with superficial fungating or skin-infiltrating tumors; test: Assessment of response: topical As2O3 gel plus electron beam radiotherapy; type: in vivo, human; set-up: key to Tumor response: Complete: A complete response was defined as the disappearance of all known skin lesions within radiation fields confirmed by subsequent observation at least 4 weeks apart; Partial: a decrease in the sum of the maximal perpendicular diameters for involved skin area within radiation fields by more than 50%; Progressive: at least 25% increase in the sum of the maximal perpendicular diameters for involved skin area or the appearance of new lesions within radiation fields; Stable: All other tumor outcomes were classified as stable disease; conditions: for Reduction in VAS for skin pain: 100-mm scale
Source text: as §1, §2
Observation for tumor response and skin reaction was conducted daily, with photographs taken weekly. A complete response was defined as the disappearance of all known skin lesions within radiation fields confirmed by subsequent observation at least 4 weeks apart. A partial response was defined as a decrease in the sum of the maximal perpendicular diameters for involved skin area within radiation fields by more than 50% which was confirmed by subsequent observation at least 4 weeks apart. Progressive disease was defined as at least 25% increase in the sum of the maximal perpendicular diameters for involved skin area or the appearance of new lesions within radiation fields. All other tumor outcomes were classified as stable disease. For efficacy of pain control, chest wall pain was estimated using a visual analog scale (VAS) as a subjective assessment. The VAS scores before treatment were set as the baseline for every patient, and we compared the changes between subsequent data after treatment and the baseline data. When differences were greater than 50 mm in a 100-mm scale, we identified this patient as a responder. The daily need for changing dressings (CD) of wounds was also recorded by nurses in charge of each patient.

[4] = test system: human cervical cancer cells; conditions: As2O3 pre-treatment in combination with ionizing radiation; Chun 2002; cited from earlier work
[5] = test system: human cervical tumor xenografts; conditions: As2O3 pre-treatment in combination with ionizing radiation; Chun 2002; cited from earlier work
[6] = Wang Z. Y. 2001; cited from earlier work
[7] = combination of topical As2O3 and radiation, pilot study, seven patients
[8] = patient 1, skin infiltration, topical As2O3 gel + radiation 50 Gy
[9] = patient 2, skin infiltration, topical As2O3 gel + radiation 50 Gy
[10] = patient 3, skin infiltration, topical As2O3 gel + radiation 50 Gy
[11] = patient 4, fungating tumor, topical As2O3 gel + radiation 50 Gy
[12] = patient 5, fungating tumor, topical As2O3 gel + radiation 50 Gy
[13] = patient 6, fungating tumor, topical As2O3 gel + radiation 30 Gy
[14] = patient 7, fungating tumor, topical As2O3 gel + radiation 50 Gy

Molecule: arsenic trioxide [As2O3]
- Acute radiation dermatitis, case number ([1]; CTC grade 0): 1
- Anorexia, case number ([1]; CTC grade 0): 4
- Chronic radiation dermatitis, case number ([1]; CTC grade 0): 4
- Fatigue, case number ([1]; CTC grade 0): 3
- Granulocytosis, case number ([1]; CTC grade 0): 6
- Hyperpigmentation, case number ([1]; CTC grade 0): 7
- Leukopenia, case number ([1]; CTC grade 0): 7
- Nausea, case number ([1]; CTC grade 0): 4
- Thrombocytopenia, case number ([1]; CTC grade 0): 7
- Vomit, case number ([1]; CTC grade 0): 6
- Acute radiation dermatitis, case number ([1]; CTC grade 1): 1
- Anorexia, case number ([1]; CTC grade 1): 2
- Chronic radiation dermatitis, case number ([1]; CTC grade 1): 2
- Fatigue, case number ([1]; CTC grade 1): 2
- Granulocytosis, case number ([1]; CTC grade 1): 1
- Hyperpigmentation, case number ([1]; CTC grade 1): 0
- Leukopenia, case number ([1]; CTC grade 1): 0
- Nausea, case number ([1]; CTC grade 1): 2
- Thrombocytopenia, case number ([1]; CTC grade 1): 0
- Vomit, case number ([1]; CTC grade 1): 1
- Acute radiation dermatitis, case number ([1]; CTC grade 2): 3
- Anorexia, case number ([1]; CTC grade 2): 1
- Chronic radiation dermatitis, case number ([1]; CTC grade 2): 1
- Fatigue, case number ([1]; CTC grade 2): 2
- Granulocytosis, case number ([1]; CTC grade 2): 0
- Hyperpigmentation, case number ([1]; CTC grade 2): 0
- Leukopenia, case number ([1]; CTC grade 2): 0
- Nausea, case number ([1]; CTC grade 2): 1
- Thrombocytopenia, case number ([1]; CTC grade 2): 0
- Vomit, case number ([1]; CTC grade 2): 0
- Acute radiation dermatitis, case number ([1]; CTC grade 3): 2
- Anorexia, case number ([1]; CTC grade 3): 0
- Chronic radiation dermatitis, case number ([1]; CTC grade 3): 0
- Fatigue, case number ([1]; CTC grade 3): 0
- Granulocytosis, case number ([1]; CTC grade 3): 0
- Leukopenia, case number ([1]; CTC grade 3): 0
- Nausea, case number ([1]; CTC grade 3): 0
- Thrombocytopenia, case number ([1]; CTC grade 3): 0
- Vomit, case number ([1]; CTC grade 3): 0
- Acute radiation dermatitis, case number ([1]; CTC grade 4): 0
- Anorexia, case number ([1]; CTC grade 4): 0
- Chronic radiation dermatitis, case number ([1]; CTC grade 4): 0
- Fatigue, case number ([1]; CTC grade 4): 0
- Granulocytosis, case number ([1]; CTC grade 4): 0
- Leukopenia, case number ([1]; CTC grade 4): 0
- Thrombocytopenia, case number ([1]; CTC grade 4): 0
- Vomit, case number ([1]; CTC grade 4): 0
- Time to satisfactory healing of grade 3 acute radiation dermatitis ([1]; after completion of the radiation treatment): 2-3 weeks
- Hematological changes ([1]; combined treatment): no significant hematological changes were observed
- Number of patients with grade 3 acute radiation dermatitis (most severe observed) ([1]; combined treatment): two
- Other adverse reactions ([1]; combined treatment): light-headedness during irradiation and moderate fatigue after radiation
- Patients developing grade 3 chronic radiation dermatitis ([1]; combined treatment): none
- Performance status ([1]; combined treatment): no changes in performance status were evident
- Dermatological toxicity such as skin rash ([1]; daily application less than 1 h, treatment not more than 5 weeks): we did not note any toxicity of this type
- Grade 2-4 granulocytosis or leukopenia ([1]; during the combined therapy): No grade 2-4 granulocytosis or leukopenia was noted
- Skin pigmentation, renal or hepatic function ([1]; during the course of the combined treatment): no skin pigmentation or significant changes in renal or hepatic function
- Local tumor control and wound secretion [2]: improved local tumor control and decreased wound secretion
- Systemic absorption, pharmacokinetic study [2]: no significant systemic absorption
- Systemic or local adverse effects [2]: without significant systemic or local adverse effects
- Change in mean daily needed CD frequency ([3]; after treatment for 1 month, all superficial and fungating wounds): 4.4 to 0.9
- Number of patients resistant, classified as stable disease ([3]; chest wall fungating tumor, of seven patients, combined therapy): One
- Number of patients with partial remission ([3]; chest wall fungating tumors, of seven patients, combined therapy): three
- Number of patients with complete remission ([3]; chest wall skin-infiltrating lesions, of seven patients, combined therapy): three
- Clinical response rate, complete remission [3, 7]: 42.9%
- Clinical response rate, partial remission [3, 7]: 42.9%
- Number of patients with relief of chest wall pain assessed by VAS ([3]; of seven patients, combined therapy): seven
- Tumor response [3, 8]: Complete
- Reduction in VAS for skin pain [3, 8]: 75 mm
- Tumor response [3, 9]: Complete
- Reduction in VAS for skin pain [3, 9]: 65 mm
- Tumor response [3, 10]: Complete
- Reduction in VAS for skin pain [3, 10]: 80 mm
- Tumor response [3, 11]: Partial (a decrease in the sum of the maximal perpendicular diameters for involved skin area within radiation fields by more than 50%)
- Reduction in VAS for skin pain [3, 11]: 70 mm
- Tumor response [3, 12]: Partial (a decrease in the sum of the maximal perpendicular diameters for involved skin area within radiation fields by more than 50%)
- Reduction in VAS for skin pain [3, 12]: 65 mm
- Tumor response [3, 13]: Partial (a decrease in the sum of the maximal perpendicular diameters for involved skin area within radiation fields by more than 50%)
- Reduction in VAS for skin pain [3, 13]: 75 mm
- Tumor response [3, 14]: Stable
- Reduction in VAS for skin pain [3, 14]: 55 mm
- Cumulative radiation dosage for remission of chest wall skin lesions ([3]; the three patients with complete remission, respectively): 20 Gy and 22 Gy and 28 Gy
- Effect on decreased clonogenic survival [4]: synergistic effect
- Effect on regression of established xenografts [5]: synergistic effect

Molecule: S1[As]2S[As]3S[As]2S[As]13 [As4S4, tetraarsenic tetraslfide]
- Complete remission rate [6]: 84.9%
